# According to US11912703B2, “6-azaindole compounds” (BRISTOL-MYERS SQUIBB COMPANY, priority 2017, dated 2024):
# Read-outs that look alike come from different tables or passages of the source.
# What was measured:
# [1] = molecular target: human TLR7 (Homo sapiens (Human), UniProt Q9NYK1); assay: TLR7 inhibition reporter assay (HEK-Blue SEAP); assay type: cell-based; conditions: HEK-Blue cells overexpressing human TLR7, gardiquimod 7.5 μM stimulation
# Protocol: (§1) HEK-Blue™-cells (Invivogen) overexpressing human TLR7, TLR8 or TLR9 receptors were used for screening inhibitors of these receptors using an inducible SEAP (secreted embryonic alkaline phosphatase) reporter gene under the control of the IFN-β minimal promoter fused to five NF-κB and AP-1-binding sites. Briefly, cells are seeded into Greiner 384 well plates (15000 cells per well for TLR7, 20,000 for TLR8 and 25,000 for TLR9) and then treated with test compounds in DMSO to yield a final dose response concentration range of 0.05 nM-50 μM. After a 30 minute compound pre-treatment at room temperature, the cells are then stimulated with a TLR7 ligand (gardiquimod at a final concentration of 7.5 μM), TLR8 ligand (R848 at a final concentration of 15.9 μM) or TLR9 ligand (ODN2006 at a final concentration of 5 nM) to activate NF-κB and AP-1 which induce the production of SEAP. After a 22 hour incubation at 37° C., 500 CO2, SEAP levels are determined with the addition of HEK-Blue™ Detection reagent (Invivogen), a cell culture medium that allows for detection of SEAP, according to manufacturer's specifications.
# [2] = molecular target: human TLR8 (Homo sapiens (Human), UniProt Q9NR97); assay: TLR8 inhibition reporter assay (HEK-Blue SEAP);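 further: SEAP driven by IFN-β minimal promoter with five NF-κB and AP-1 sites, compounds tested 0.05 nM to 50 µM, 22 h incubation, inhibition relative to agonist plus DMSO wells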
# Protocol: as §1
# [3] = molecular target: human TLR9 (Homo sapiens (Human), UniProt Q9NR96); assay: TLR9 inhibition reporter assay (HEK-Blue SEAP);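 further: SEAP driven by IFN-β minimal promoter carrying five NF-κB and AP-1 sites, 22 h at 37 °C, compounds 0.05 nM–50 µM, inhibition scaled between agonist-plus-DMSO and reference-inhibitor wells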
# [4] = read-out: TLR8 IC50; HEK-Blue cells overexpressing human TLR8, R848 15.9 μM stimulation, SEAP reporter
# [5] = read-out: TLR9 IC50; HEK-Blue cells overexpressing human TLR9, ODN2006 5 nM stimulation, SEAP reporter
# [6] = read-out: TLR8 IC50; HEK-Blue cells overexpressing human TLR8; R848 15.9 μM stimulation; SEAP reporter
# [7] = read-out: TLR9 IC50; HEK-Blue cells overexpressing human TLR9; ODN2006 5 nM stimulation; SEAP reporter
# human TLR8, sequence (Q9NR97 27-1041): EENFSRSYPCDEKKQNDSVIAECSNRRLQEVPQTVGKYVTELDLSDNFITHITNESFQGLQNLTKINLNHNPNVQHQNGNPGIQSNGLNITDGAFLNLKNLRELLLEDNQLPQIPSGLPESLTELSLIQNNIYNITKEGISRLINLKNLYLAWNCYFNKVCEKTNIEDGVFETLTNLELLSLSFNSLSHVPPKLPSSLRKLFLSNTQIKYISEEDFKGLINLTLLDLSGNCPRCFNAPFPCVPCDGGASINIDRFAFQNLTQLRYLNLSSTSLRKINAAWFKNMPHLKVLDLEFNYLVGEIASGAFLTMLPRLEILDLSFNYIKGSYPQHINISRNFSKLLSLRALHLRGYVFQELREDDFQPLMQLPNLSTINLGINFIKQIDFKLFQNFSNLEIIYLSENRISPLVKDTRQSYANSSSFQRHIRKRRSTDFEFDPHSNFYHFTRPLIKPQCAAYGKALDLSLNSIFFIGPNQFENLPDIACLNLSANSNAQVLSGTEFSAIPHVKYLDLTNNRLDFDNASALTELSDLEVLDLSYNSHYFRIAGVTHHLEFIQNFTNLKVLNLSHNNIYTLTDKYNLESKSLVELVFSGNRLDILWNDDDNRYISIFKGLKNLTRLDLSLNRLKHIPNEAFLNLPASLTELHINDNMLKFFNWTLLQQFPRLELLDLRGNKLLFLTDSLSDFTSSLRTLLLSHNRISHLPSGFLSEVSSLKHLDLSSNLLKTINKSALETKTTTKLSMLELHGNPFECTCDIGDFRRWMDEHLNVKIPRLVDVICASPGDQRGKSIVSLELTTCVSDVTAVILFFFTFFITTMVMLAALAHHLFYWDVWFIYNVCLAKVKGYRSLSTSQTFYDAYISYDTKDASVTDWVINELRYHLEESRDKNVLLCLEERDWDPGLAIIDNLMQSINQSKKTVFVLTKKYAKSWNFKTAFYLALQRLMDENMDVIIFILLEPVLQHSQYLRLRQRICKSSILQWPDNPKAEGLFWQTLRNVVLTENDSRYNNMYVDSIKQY
# human TLR9, sequence (Q9NR96 26-1032): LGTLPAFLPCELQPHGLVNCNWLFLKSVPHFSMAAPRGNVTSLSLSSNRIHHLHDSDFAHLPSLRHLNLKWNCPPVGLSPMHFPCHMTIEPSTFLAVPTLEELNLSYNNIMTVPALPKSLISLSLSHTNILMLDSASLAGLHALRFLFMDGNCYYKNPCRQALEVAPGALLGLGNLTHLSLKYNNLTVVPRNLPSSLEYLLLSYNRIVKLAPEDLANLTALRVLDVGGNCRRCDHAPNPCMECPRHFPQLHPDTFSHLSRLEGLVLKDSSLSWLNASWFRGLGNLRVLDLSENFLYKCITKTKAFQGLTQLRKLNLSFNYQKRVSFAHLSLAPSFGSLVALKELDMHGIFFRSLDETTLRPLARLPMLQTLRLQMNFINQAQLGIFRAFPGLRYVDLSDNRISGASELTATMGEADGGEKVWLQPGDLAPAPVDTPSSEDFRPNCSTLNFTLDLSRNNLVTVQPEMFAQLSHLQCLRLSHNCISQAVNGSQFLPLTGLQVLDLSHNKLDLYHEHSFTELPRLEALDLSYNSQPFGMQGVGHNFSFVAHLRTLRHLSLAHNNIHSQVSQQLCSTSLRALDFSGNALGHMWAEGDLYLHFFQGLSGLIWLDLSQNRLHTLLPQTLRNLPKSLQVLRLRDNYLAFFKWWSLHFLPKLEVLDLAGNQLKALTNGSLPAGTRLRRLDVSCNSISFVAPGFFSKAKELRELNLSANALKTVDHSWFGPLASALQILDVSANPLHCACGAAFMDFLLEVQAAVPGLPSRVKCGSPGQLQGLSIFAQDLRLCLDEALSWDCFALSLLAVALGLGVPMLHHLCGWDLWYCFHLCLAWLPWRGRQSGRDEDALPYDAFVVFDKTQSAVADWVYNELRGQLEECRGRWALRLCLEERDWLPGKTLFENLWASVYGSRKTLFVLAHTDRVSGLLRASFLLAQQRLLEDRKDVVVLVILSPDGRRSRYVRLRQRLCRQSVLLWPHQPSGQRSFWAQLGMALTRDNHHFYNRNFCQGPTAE
# human TLR7, sequence (Q9NYK1 27-1049): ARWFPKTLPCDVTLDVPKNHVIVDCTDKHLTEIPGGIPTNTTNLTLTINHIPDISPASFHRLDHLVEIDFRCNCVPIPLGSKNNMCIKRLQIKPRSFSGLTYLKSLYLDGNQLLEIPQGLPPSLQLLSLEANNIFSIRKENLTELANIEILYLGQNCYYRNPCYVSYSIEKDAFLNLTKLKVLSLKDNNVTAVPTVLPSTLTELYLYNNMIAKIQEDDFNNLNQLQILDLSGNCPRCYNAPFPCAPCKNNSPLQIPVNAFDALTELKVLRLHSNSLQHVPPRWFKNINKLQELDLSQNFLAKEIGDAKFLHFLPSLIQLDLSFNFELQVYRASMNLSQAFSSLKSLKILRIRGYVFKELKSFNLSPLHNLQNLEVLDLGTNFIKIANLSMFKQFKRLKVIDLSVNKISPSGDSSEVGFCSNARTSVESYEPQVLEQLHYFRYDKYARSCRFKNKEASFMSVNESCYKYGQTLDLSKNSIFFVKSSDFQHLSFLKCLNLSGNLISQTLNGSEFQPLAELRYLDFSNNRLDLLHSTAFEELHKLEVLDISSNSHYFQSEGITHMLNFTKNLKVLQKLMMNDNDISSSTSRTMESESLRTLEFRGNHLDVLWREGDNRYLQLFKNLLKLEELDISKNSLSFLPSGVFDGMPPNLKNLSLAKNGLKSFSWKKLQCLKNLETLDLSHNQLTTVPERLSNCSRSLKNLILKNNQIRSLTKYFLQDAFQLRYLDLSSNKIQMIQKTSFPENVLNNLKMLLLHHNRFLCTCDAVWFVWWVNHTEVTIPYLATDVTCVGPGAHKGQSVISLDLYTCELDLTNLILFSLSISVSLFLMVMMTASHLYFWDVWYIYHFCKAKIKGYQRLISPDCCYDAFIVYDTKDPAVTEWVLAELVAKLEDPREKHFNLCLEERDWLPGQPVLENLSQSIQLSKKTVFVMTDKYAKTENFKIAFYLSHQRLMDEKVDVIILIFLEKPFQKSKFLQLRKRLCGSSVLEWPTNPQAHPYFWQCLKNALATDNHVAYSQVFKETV
SMILES,IC50 [1],"IC50 [2, 4]","IC50 [3, 5]","IC50 [2, 6]","IC50 [3, 7]",IC50 [2],IC50 [3]
Cc1c(-c2[nH]c3cnc(N4CCC(NCC(C)(C)O)CC4)c(C)c3c2C(C)C)cn2ncnc2c1C [Example 88],0.62 nM,0.28 nM,322 nM,,,,
CNCC(=O)N1CCN(c2ncc3[nH]c(-c4cc(OC)c5ncnn5c4)c(C(C)C)c3c2C)CC1 [Example 98],4.7 nM,14 nM,1200 nM,,,,
Cc1cc(-c2[nH]c3cnc(C4CCN(C(=O)CN(C)C)CC4)c(F)c3c2C(C)C)cn2ncnc12 [Example 66],2.1 nM,4.9 nM,3620 nM,,,,
"COc1cc(-c2[nH]c3cnc(N4CCNCC4)cc3c2C(C)C)cn2ncnc12 [Example 7, 6-(3-isopropyl-5-(piperazin-1-yl)-1H-pyrrolo[2,3-c]pyridin-2-yl)-8-methoxy-[1,2,4]triazolo [1,5-a]pyridine]",1.5 nM,0.56 nM,168 nM,,,,
Cc1c(-c2[nH]c3cnc(C4CCC(NC56CC(C5)C6)CC4)c(F)c3c2C(C)C)cn2ncnc2c1C (stereo not shown) [Example 239],2.6 nM,2.6 nM,15900 nM,,,,
CCN(C)C1CCN(c2ncc3[nH]c(-c4cc(C)c5ncnn5c4)c(C(C)C)c3c2C)CC1 [Example 235],0.24 nM,1 nM,2210 nM,1 nM,2210 nM,,
COc1cc(-c2[nH]c3cnc(N4CCC(N5CC6(COC6)C5)CC4)c(C)c3c2C(C)C)cn2ncnc12 [Example 139],1.1 nM,1 nM,1030 nM,,,,
COc1cc(-c2[nH]c3cnc(C4CCC(NCC5(C)COC5)CC4)c(C)c3c2C(C)C)cn2ncnc12 (stereo not shown) [Example 269],4.4 nM,6.4 nM,205 nM,,,,
Cc1cc(-c2[nH]c3cnc(C4CCN(CCS(C)(=O)=O)CC4)c(F)c3c2C(C)C)cn2ncnc12 [Example 149],3.6 nM,5.1 nM,13100 nM,,,,
COc1cc(-c2[nH]c3cnc(C4CCN(CC(N)=O)CC4)c(C)c3c2C(C)C)cn2ncnc12 [Example 11],1.6 nM,8.3 nM,91 nM,,,,
COc1cc(-c2[nH]c3cnc(C4CCC(NCC5(C)COC5)CC4)c(F)c3c2C(C)C)cn2ncnc12 (stereo not shown) [Example 193],0.84 nM,0.4 nM,1250 nM,,,,
Cc1cc(-c2[nH]c3cnc(C4CCC(NC(C)C)CC4)c(F)c3c2C(C)C)cn2ncnc12 (stereo not shown) [Example 198],2.4 nM,2.6 nM,1150 nM,,,,
Cc1c(-c2[nH]c3cnc(C4CCC(NCC5(C)COC5)CC4)c(C)c3c2C(C)C)cn2ncnc2c1C (stereo not shown) [Example 204],6.6 nM,3.1 nM,466 nM,,,,
"COc1cc(-c2[nH]c3cnc(N4CCC(NC5COC5)CC4)c(F)c3c2C(C)C)cn2ncnc12 [Example 42, 1-(4-fluoro-3-isopropyl-2-(8-methoxy-[1,2,4]triazolo[1,5-a]pyridin-6-yl)-1H-pyrrolo[2,3-c]pyridin-5-yl)-N-(oxetan-3-yl)piperidin-4-amine]",1.6 nM,0.59 nM,9180 nM,,,,
Cc1cc(-c2[nH]c3cnc(C4CCC(N5CCC5)CC4)c(F)c3c2C(C)C)cn2ncnc12 (stereo not shown) [Example 109],0.61 nM,1.7 nM,1660 nM,,,,
Cc1c(-c2[nH]c3cnc(C4CCN(CC(=O)N(C)C)CC4)cc3c2C(C)C)cn2ncnc2c1C [Example 31],2.1 nM,6.2 nM,132 nM,,,,
"COc1cc(-c2[nH]c3cnc(N4CCNCC4)c(Cl)c3c2C(C)C)cn2ncnc12 [Example 6, 6-(4-chloro-3-isopropyl-5-(piperazin-1-yl)-1H-pyrrolo[2,3-c]pyridin-2-yl)-8-methoxy-[1,2,4]triazolo[1,5-a]pyridine]",0.61 nM,,,,,1.4 nM,664 nM
CNCCN1CCC(c2cc3c(C)c(-c4ccc(OC)c(OC)c4)[nH]c3cn2)CC1 [Example 8],6640 nM,15900 nM,258 nM,,,,
Cc1cc(-c2[nH]c3cnc(C4CCNCC4)c(F)c3c2C(C)C)cc(C)n1 [Example 151],1.1 nM,4.4 nM,768 nM,,,,
Cc1c(-c2[nH]c3cnc(N4CCC(NC5COC5)CC4)c(C)c3c2C(C)C)cn2ncnc2c1C [Example 237],1.6 nM,0.95 nM,2070 nM,0.95 nM,2070 nM,,
Cc1cc(-c2[nH]c3cnc(C4CCC(NC5CCOCC5)CC4)c(F)c3c2C(C)C)cn2ncnc12 (stereo not shown) [Example 82],0.18 nM,0.36 nM,1460 nM,,,,
CNC(=O)CN(C)C1CCN(c2ncc3[nH]c(-c4cc(OC)c5ncnn5c4)c(C(C)C)c3c2F)CC1 [Example 221],1.1 nM,,,0.7 nM,2570 nM,,
CNC(=O)CN(C)C1CCC(c2ncc3[nH]c(-c4cc(OC)c5ncnn5c4)c(C(C)C)c3c2F)CC1 (stereo not shown) [Example 131],5 nM,7.9 nM,11400 nM,,,,
CNCC(=O)N1CCC(c2ncc3[nH]c(-c4cc(C)nc(C)c4)c(C(C)C)c3c2F)CC1 [Example 214],7.5 nM,16 nM,2070 nM,,,,
CCN(C)C1CCC(c2ncc3[nH]c(-c4cc(OC)c5ncnn5c4)c(C(C)C)c3c2C)CC1 (stereo not shown) [Example 116],10 nM,42 nM,766 nM,,,,
COc1cc(-c2[nH]c3cnc(C4CCC(N5CC6(COC6)C5)CC4)c(C)c3c2C(C)C)cn2ncnc12 (stereo not shown) [Example 246],2 nM,17 nM,705 nM,,,,
COc1cc(-c2[nH]c3cnc(C4CCC(N(C)C(C)C)CC4)c(F)c3c2C(C)C)cn2ncnc12 (stereo not shown) [Example 227],1.9 nM,,,2.6 nM,4320 nM,,
Cc1cc(-c2[nH]c3cnc(C4CCN(CC5(C)COC5)CC4)c(F)c3c2C(C)C)cc(C)n1 [Example 215],4.2 nM,,,3.7 nM,2000 nM,,
COc1cc(-c2[nH]c3cnc(C4CCC(N5CC6(COC6)C5)CC4)c(F)c3c2C(C)C)cn2ncnc12 (stereo not shown) [Example 226],0.51 nM,,,0.73 nM,1290 nM,,
CCN(C)C1CCN(c2ncc3[nH]c(-c4cc(C)c5ncnn5c4)c(C(C)C)c3c2F)CC1 [Example 69],0.55 nM,0.55 nM,4050 nM,,,,

# Further lines, results first:
IC50 [1],"IC50 [2, 4]","IC50 [3, 5]","IC50 [2, 6]","IC50 [3, 7]",IC50 [2],IC50 [3],SMILES
1.7 nM,3.5 nM,257 nM,,,,,COc1cc(-c2[nH]c3cnc(N4CCC(NC(=O)CN(C)C)CC4)cc3c2C(C)C)cn2ncnc12 [Example 344]
13 nM,1.6 nM,11900 nM,,,,,COc1cc(-c2[nH]c3cnc(N4CCN(CC(=O)N(C)C)CC4)cc3c2C(C)C)cn2ncnc12 [Example 300]
8.6 nM,16 nM,376 nM,,,,,COc1cc(-c2[nH]c3cnc(C4CCC(NC5COC5)C4)cc3c2C(C)C)cn2ncnc12 (stereo not shown) [Example 273]
7.7 nM,1.2 nM,114 nM,,,,,COc1cc(-c2[nH]c3cnc(C4CCC(NCC5(C)COC5)C4)cc3c2C(C)C)cn2ncnc12 (stereo not shown) [Example 276]
0.65 nM,1.5 nM,1110 nM,,,,,Cc1c(N2CCC(N3CCC3)CC2)ncc2[nH]c(-c3cc(C)c4ncnn4c3)c(C(C)C)c12 [Example 279]
3.2 nM,,,2.5 nM,22000 nM,,,Cc1c(-c2[nH]c3cnc(N4CCN(C5COC5)C[C@H]4C)c(F)c3c2C(C)C)cn2ncnc2c1C [Example 457]
2.8 nM,,,1.4 nM,17100 nM,,,Cc1c(-c2[nH]c3cnc(N4CCN(CC#N)C[C@H]4C)c(F)c3c2C(C)C)cn2ncnc2c1C [Example 467]
33 nM,13 nM,> 50000 nM,,,,,"COc1cc(-c2[nH]c3cnc(N4CCN(C5CCCOC5)CC4)c(F)c3c2C(C)C)cn2ncnc12 (single isomer, unassigned) [Example 387]"
4.1 nM,1.4 nM,42100 nM,,,,,COc1cc(-c2[nH]c3cnc(N4CCN(CC5(C)COC5)CC4)c(F)c3c2C(C)C)cn2ncnc12 [Example 385]
48 nM,30 nM,43200 nM,,,,,Cc1c(-c2[nH]c3cnc(N4CC5(CN(CC#N)C5)C4)c(F)c3c2C(C)C)cn2ncnc2c1C [Example 397]
9.5 nM,33 nM,80 nM,,,,,CCN(C)C1CCC(c2cc3c(C(C)C)c(-c4cc(OC)c5ncnn5c4)[nH]c3cn2)CC1 (stereo not shown) [Example 316]
12 nM,3.7 nM,14400 nM,,,,,COc1cc(-c2[nH]c3cnc(N4CCN(CC(N)=O)CC4)cc3c2C(C)C)cn2ncnc12 [Example 319]
2.4 nM,12 nM,512 nM,,,,,COc1cc(-c2[nH]c3cnc(C4CCC(NCC(C)(C)C)CC4)cc3c2C(C)C)cn2ncnc12 (stereo not shown) [Example 325]
2 nM,16 nM,718 nM,,,,,CNC(=O)CN1CCC(c2cc3c(C(C)C)c(-c4cc(C)c5ncnn5c4)[nH]c3cn2)CC1 [Example 287]
5.9 nM,0.27 nM,6110 nM,,,,,Cc1c(-c2[nH]c3cnc(N4CCN(CC5CC5)CC4)c(F)c3c2C(C)C)cn2ncnc2c1C [Example 430]
14 nM,0.73 nM,19800 nM,,,,,"Cc1c(-c2[nH]c3cnc(N4CCN(CC(=O)N(C)C)CC4)c(C)c3c2C(C)C)cn2ncnc2c1C [Example 352, 2-(4-(2-(7,8-dimethyl-[1,2,4]triazolo[1,5-a]pyridin-6-yl)-3-isopropyl-4-methyl-1H-pyrrolo[2,3-c]pyridin-5-yl)piperazin-1-yl)-N,N-dimethylacetamide]"
